{
  "source": "ChEMBL document CHEMBL1201862",
  "about": "“PubChem BioAssay data set” (2004)",
  "key": {"[1]": {"test_system": "P388/ADR", "assay": "cells", "type": "functional", "conditions": "Mus musculus"}, "[2]": {"test_system": "P388", "assay": "cells", "type": "functional", "conditions": "Mus musculus"}, "[3]": {"test_system": "HEK293", "assay": "EBV LMP1 TES2 canonical NF-kB signalling blockers – cell-based, HEK293, luciferase, cherry-pick, dose response (AID 588343)", "type": "functional", "conditions": "Homo sapiens"}, "[4]": {"target": "T1, DNA repair protein RAD52 homolog (Homo sapiens, UniProt P43351)", "T1 sequence (P43351 whole entry)": "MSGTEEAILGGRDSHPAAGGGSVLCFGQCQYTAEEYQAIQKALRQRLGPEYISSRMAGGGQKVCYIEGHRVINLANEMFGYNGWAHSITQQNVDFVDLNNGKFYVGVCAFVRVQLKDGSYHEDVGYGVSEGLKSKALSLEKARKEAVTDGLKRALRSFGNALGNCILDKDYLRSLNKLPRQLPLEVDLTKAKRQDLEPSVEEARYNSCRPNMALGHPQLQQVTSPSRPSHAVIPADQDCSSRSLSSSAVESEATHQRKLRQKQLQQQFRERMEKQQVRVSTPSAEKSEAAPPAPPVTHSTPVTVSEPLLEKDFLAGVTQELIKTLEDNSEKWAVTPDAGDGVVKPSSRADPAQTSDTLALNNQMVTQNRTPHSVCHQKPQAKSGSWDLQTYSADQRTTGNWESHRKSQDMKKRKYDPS", "type": "functional, biochemical"}, "[5]": {"assay": "loss of viability in HepG2 cells – cell-based, CellTiter-Glo, cherry-picked, cytotoxicity control for Shn3 inhibitor project, dose response (AID 624134)", "type": "functional"}, "[6]": {"assay": "reduction of Shn3 3'UTR-driven luciferase in osteoblasts – cell-based, Clone20 osteoblasts, firefly luciferase, cherry-picked, dose response (AID 624132)", "type": "functional"}, "[7]": {"assay": "non-specific 3'UTR reporter inhibition in Clone20-Shn3RL – cell-based, Renilla luciferase, cherry-picked, counter-screen for Shn3 inhibitor project, dose response (AID 624133)", "type": "functional"}, "[8]": {"assay": "blockers of HIV-1 envelope-mediated cell-cell fusion – cherry-pick, dose response (AID 652057)", "type": "functional, cell-based"}, "[9]": {"assay": "off-target signal loss in HeLa-CEM21 co-culture – HeLa F-luc CTL cells, cherry-picked, counter-screen for HIV-1 Env fusion inhibitor project, dose response (AID 652040);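 note: potency for signal decrease marking cytotoxic or nonspecific inhibition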", "type": "functional, cell-based"}, "[10]": {"assay": "blockers of HIV-1 ZM109 envelope-driven cell-cell fusion – HeLa effector, CEM target cells, luciferase, cherry-pick, dose response (AID 652058)", "type": "functional, cell-based"}, "[11]": {"test_system": "SN12K1", "assay": "cells", "type": "functional", "conditions": "Homo sapiens"}, "[12]": {"assay": "Trypanosoma cruzi growth suppression in host cells – NIH3T3 host cells, beta-gal luminescence, confirmation (AID 2044);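 note: intracellular parasites grown in NIH/3T3 mouse fibroblasts as host cells; luminescent beta-galactosidase reporter signal from transgenic T. cruzi replicating inside host cells; inhibitors lower the luminescence signal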", "type": "functional, cell-based"}, "[13]": {"assay": "NIH3T3 cell viability loss – ATP luminescence, mouse fibroblasts, counter-screen, dose response (AID 2010);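 note: cells exposed to compound for about 90 hours before reading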", "type": "functional, cell-based"}, "[14]": {"assay": "cells", "type": "functional, cell-based"}, "[15]": {"assay": "cells", "type": "functional, cell-based", "remark": "listed apart in the source"}, "[16]": {"assay": "blockade of melanocortin 4 receptor signaling – cell-based, plate reader, cherry pick, counter-screen for LGR2 antagonist project, dose response (AID 743444);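 note: transfected HEK 293 cells stimulated with alpha-MSH peptide; potency of inhibitors of the alpha-MSH evoked signal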", "type": "functional"}, "[17]": {"assay": "blockers of bursicon-stimulated LGR2 cAMP reporter – cell-based, HEK293, CRE-luciferase reporter, cherry pick, set 2, dose response (AID 743343);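 note: transfected cells were stimulated with diluted bursicon conditioned medium after compound addition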", "type": "functional"}, "[18]": {"target": "T2, Cytochrome P450 1A2 (Homo sapiens, UniProt P05177)", "T2 sequence (P05177 whole entry)": "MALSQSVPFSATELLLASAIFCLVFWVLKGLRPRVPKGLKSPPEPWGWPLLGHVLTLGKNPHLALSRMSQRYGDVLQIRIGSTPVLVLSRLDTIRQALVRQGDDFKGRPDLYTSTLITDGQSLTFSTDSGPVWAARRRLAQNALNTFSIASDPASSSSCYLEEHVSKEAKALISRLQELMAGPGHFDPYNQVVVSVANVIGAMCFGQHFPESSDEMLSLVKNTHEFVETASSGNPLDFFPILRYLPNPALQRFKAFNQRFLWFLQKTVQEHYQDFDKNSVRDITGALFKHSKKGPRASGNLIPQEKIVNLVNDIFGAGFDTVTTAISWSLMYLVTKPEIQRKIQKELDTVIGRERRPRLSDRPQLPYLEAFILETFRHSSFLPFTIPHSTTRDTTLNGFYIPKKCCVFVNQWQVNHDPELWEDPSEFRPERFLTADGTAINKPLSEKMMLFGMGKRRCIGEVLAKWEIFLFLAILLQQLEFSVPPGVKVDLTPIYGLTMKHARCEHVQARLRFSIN"}, "[19]": {"target": "Cytochrome P450 2D6 (Homo sapiens, UniProt P10635)", "sequence (P10635 whole entry)": "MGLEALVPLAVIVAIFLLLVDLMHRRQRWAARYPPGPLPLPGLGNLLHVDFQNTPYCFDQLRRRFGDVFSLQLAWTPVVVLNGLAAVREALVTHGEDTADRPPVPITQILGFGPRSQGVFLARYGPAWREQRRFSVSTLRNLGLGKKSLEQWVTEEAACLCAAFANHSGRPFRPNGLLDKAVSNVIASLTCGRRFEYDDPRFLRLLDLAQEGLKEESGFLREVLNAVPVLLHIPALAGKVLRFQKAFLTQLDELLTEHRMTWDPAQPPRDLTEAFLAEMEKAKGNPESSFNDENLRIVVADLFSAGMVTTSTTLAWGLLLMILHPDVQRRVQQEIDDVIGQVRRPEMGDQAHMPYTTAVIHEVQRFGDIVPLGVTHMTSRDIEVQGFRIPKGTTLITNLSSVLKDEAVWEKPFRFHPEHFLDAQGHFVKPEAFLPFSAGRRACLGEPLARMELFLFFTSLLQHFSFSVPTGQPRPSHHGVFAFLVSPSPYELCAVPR"}, "[20]": {"assay": "HIV-1 AD8 envelope cell-cell fusion blockers – cherry-pick, dose response (AID 652062);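 note: potency is for inhibitors of fusion seen as a drop in luminescence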", "type": "functional, cell-based"}, "[21]": {"target": "Cytochrome P450 3A4 (Homo sapiens, UniProt P08684)", "sequence (P08684 whole entry)": "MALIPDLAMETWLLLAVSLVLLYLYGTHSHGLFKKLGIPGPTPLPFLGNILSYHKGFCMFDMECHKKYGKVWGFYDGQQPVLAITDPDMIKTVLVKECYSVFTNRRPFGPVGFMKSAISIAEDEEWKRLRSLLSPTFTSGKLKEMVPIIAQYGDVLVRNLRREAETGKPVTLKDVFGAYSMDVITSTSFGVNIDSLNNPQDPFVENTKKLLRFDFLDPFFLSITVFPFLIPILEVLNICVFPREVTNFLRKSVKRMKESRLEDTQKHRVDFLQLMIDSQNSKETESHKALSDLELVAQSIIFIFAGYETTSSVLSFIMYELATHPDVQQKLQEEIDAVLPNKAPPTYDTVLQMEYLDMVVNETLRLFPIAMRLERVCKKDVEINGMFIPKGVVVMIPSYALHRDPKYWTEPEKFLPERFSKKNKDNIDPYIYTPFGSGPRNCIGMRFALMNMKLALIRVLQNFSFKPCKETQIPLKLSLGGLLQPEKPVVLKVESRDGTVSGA"}},
  "note": "Active and inactive are the calls of the source.",
  "data": [
    {"smiles": "COc1cc(C2c3cc4c(cc3[C@@H](Nc3ccc(F)cc3)C3COC(=O)[C@H]23)OCO4)cc(OC)c1O", "note": "(some centres not stated)", "values": [
      {"measurement": "GI50", "setting": "[1]", "result": "0.09 µM (active)"},
      {"measurement": "GI50", "setting": "[2]", "result": "< 0.01 µM (active)"}
    ]},
    {"smiles": "CCCCN1C2CCCC1CC(NC(=O)C1CCCCC1)C2", "note": "(configuration not stated)", "values": [
      {"measurement": "AC50", "setting": "[3]", "result": "237 µM (active)"}
    ]},
    {"smiles": "CCCNc1nc(Cl)nc(NCc2cccnc2)n1", "values": [
      {"measurement": "AC50", "setting": "[4]", "result": "4.26 µM (active)"}
    ]},
    {"smiles": "Cc1ccccc1CN1CC2=C(CCN(Cc3ccccc3)C2=O)N2CCN=C12", "values": [
      {"measurement": "AC50", "setting": "[5]", "result": "3.31 µM (active)"},
      {"measurement": "AC50", "setting": "[6]", "result": "2.41 µM (active)"},
      {"measurement": "AC50", "setting": "[7]", "result": "29.6 µM (active)"}
    ]},
    {"smiles": "COc1ccc(OC)c(CN2C(=O)c3ccccc3C2c2nnnn2-c2c(C)cccc2C)c1", "note": "(configuration not stated)", "values": [
      {"measurement": "AC50", "setting": "[8]", "result": "4.69 µM (active)"},
      {"measurement": "AC50", "setting": "[9]", "result": "19 µM (active)"},
      {"measurement": "AC50", "setting": "[10]", "result": "3.93 µM (active)"}
    ]},
    {"smiles": "O=C(c1ccccc1O)c1cc(-c2ncc3c(=O)c4ccccc4oc3n2)c(-c2ccccc2O)[nH]c1=O", "values": [
      {"measurement": "GI50", "setting": "[1]", "result": "22.4 µM (inactive)"},
      {"measurement": "GI50", "setting": "[11]", "result": "17.5 µM (inactive)"},
      {"measurement": "GI50", "setting": "[2]", "result": "19.7 µM (inactive)"}
    ]},
    {"smiles": "O=C(Cn1ccnc1[N+](=O)[O-])N(CCO)CCO", "values": [
      {"measurement": "GI50", "setting": "[1]", "result": "> 1250 µM (inactive)"},
      {"measurement": "GI50", "setting": "[11]", "result": "> 1250 µM (inactive)"},
      {"measurement": "GI50", "setting": "[2]", "result": "> 1250 µM (inactive)"}
    ]},
    {"smiles": "O=C(NNC(=O)c1cccnc1SCc1cccc([N+](=O)[O-])c1)c1ccccn1", "values": [
      {"measurement": "EC50", "setting": "[12]", "result": "0.994 µM (active)"},
      {"measurement": "EC50", "setting": "[13]", "result": "1.65 µM (active)"},
      {"measurement": "AC50", "setting": "[5]", "result": "7.84 µM (active)"},
      {"measurement": "AC50", "setting": "[6]", "result": "1.9 µM (active)"},
      {"measurement": "AC50", "setting": "[7]", "result": "1.32 µM (active)"},
      {"measurement": "EC50", "setting": "[14]", "result": "27.8 µM (active)"},
      {"measurement": "EC50", "setting": "[15]", "result": "> 350 µM (not active)"}
    ]},
    {"smiles": "O=C(O)c1ccc(N/N=C/c2ccc3ncccc3c2)cc1", "values": [
      {"measurement": "AC50", "setting": "[16]", "result": "3.72 µM (active)"},
      {"measurement": "AC50", "setting": "[3]", "result": "2.54 µM (active)"},
      {"measurement": "AC50", "setting": "[17]", "result": "3.18 µM (active)"}
    ]},
    {"smiles": "CCC(C)NC(=O)Cn1cnc2sc(C)cc2c1=O", "note": "(configuration not stated)", "values": [
      {"measurement": "AC50", "setting": "[18]", "result": "6.31 µM (inconclusive)"},
      {"measurement": "AC50", "setting": "[19]", "result": "25.1 µM (inconclusive)"}
    ]},
    {"smiles": "Cc1ccc(S(=O)(=O)N2CCC(=O)N(CCOCc3ccc(C(F)(F)F)cc3)CC2)cc1", "values": [
      {"measurement": "AC50", "setting": "[20]", "result": "6.53 µM (active)"},
      {"measurement": "AC50", "setting": "[8]", "result": "5.79 µM (active)"},
      {"measurement": "AC50", "setting": "[9]", "result": "14.6 µM (active)"},
      {"measurement": "AC50", "setting": "[10]", "result": "3.68 µM (active)"}
    ]},
    {"smiles": "CCNc1ncc2nc(-c3ccc(F)cc3)c(=O)n(-c3ccc(OC)cc3)c2n1", "values": [
      {"measurement": "AC50", "setting": "[18]", "result": "6.31 µM (inconclusive)"},
      {"measurement": "AC50", "setting": "[19]", "result": "0.158 µM (inconclusive)"},
      {"measurement": "AC50", "setting": "[21]", "result": "20 µM (inconclusive)"}
    ]},
    {"smiles": "C[C@H]1CN([C@@H](C)CO)C(=O)Cc2cc(NC(=O)Cc3ccccc3)ccc2O[C@H]1CN(C)S(=O)(=O)c1cccs1", "values": [
      {"measurement": "AC50", "setting": "[20]", "result": "3.35 µM (active)"},
      {"measurement": "AC50", "setting": "[8]", "result": "1.48 µM (active)"},
      {"measurement": "AC50", "setting": "[9]", "result": "2.4 µM (active)"},
      {"measurement": "AC50", "setting": "[10]", "result": "2.26 µM (active)"}
    ]},
    {"smiles": "COc1cccc(-c2nc3c(C(=O)NCCN(C)C)cccc3[nH]2)c1", "values": [
      {"measurement": "GI50", "setting": "[1]", "result": "13.7 µM (inactive)"},
      {"measurement": "GI50", "setting": "[11]", "result": "12.4 µM (inactive)"},
      {"measurement": "GI50", "setting": "[2]", "result": "4.45 µM (inactive)"}
    ]}
  ]
}
